Results from patent US20090320166A1, “Synergistic Insecticide And Fungicidal Mixtures” (BAYER CROPSCIENCE AG, priority 2006, published 2009).

How the values were obtained:
Myzus persicae = Myzus persicae test (cabbage leaf dip); type: in vivo; conditions: 200 ppm
Text: Solvent: 7 parts by weight of dimethylformamide

Phaedon cochleariae = Phaedon cochleariae larvae test (cabbage leaf dip); conditions: Table B1, 200 ppm, mustard beetle larvae on cabbage leaves

Cn1cc(C(=O)Nc2ccccc2C2CC2C2CC2)c(C(F)F)n1 (stereo not drawn) [compound (I-4)]
0%: Kill in % after 1d (Myzus persicae; Table A1, green peach aphid on cabbage leaves, after 1 d) | Kill in % after 6d (Myzus persicae; Table A2, after 6 d) | Kill in % after 6d (Phaedon cochleariae)
